This is an account of results in patent US8173645B2 (Takeda San Diego, Inc., priority 2007, dated 2012).

This assay addresses T1, glucokinase (GK), residues 12-465 of the human enzyme (Homo sapiens, UniProt P35557).
T1 construct: I.D. No. 1 corresponds to residues 12-465 of glucokinase; made in house; host or cells: E. coli DH10b-Tlr
T1 sequence (P35557 with tags, fused parts or gaps isoform P35557-2): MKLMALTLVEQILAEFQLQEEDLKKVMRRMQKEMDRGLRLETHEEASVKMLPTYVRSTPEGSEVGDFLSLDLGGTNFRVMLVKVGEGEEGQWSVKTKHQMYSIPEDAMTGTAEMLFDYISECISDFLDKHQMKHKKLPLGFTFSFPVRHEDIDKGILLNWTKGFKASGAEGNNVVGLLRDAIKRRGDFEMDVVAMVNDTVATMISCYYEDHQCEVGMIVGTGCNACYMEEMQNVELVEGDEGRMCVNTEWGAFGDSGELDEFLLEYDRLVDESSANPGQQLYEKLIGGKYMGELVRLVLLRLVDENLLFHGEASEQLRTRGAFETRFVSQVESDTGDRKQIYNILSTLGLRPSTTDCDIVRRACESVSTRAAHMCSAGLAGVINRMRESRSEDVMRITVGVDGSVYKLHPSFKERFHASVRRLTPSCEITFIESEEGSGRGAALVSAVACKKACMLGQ
As to the kind of experiment: Enzymatic glucokinase activity assay (KinaseGlo luminescence, ATP consumption). It counts as biochemical. Conditions: 5 μM ATP, 5 mM Glucose; for EC50: GK activation, Kact = concentration giving 50% of the maximal increase in GK activity, read-out: pKact; for Emax: calculated maximal gain in GK enzyme activity at a saturating concentration of the compound, read-out: % ACTmax. In outline:
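C-terminally FLAG-tagged enzyme expressed in E. coli and purified. Reaction: 25 mM Hepes pH 7.2, 25 mM NaCl, 10 mM MgCl2, 0.01% Brij35, 1 mM DTT, 5 μM ATP, 5 mM glucose, 2% DMSO, 60 min at room temperature. Remaining ATP was read by luciferase luminescence; pKact and % ACTmax came from nonlinear fits of 11-point 2-fold dilutions.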

Structures are written as SMILES. A value given as a limit tells only on which side of the number the result lay.

In the case of `Cc1c(Cl)cc(F)cc1S(=O)(=O)N1CCN([C@@H](CC2CCCCC2)C(=O)Nc2nccs2)C(=O)C1` [Example 187, (S)-2-(4-(3-chloro-5-fluoro-2-methylphenylsulfonyl)-2-oxopiperazin-1-yl)-3-cyclohexyl-N-(thiazol-2-yl)propanamide], the EC50 was at most 0.631 µM and the Emax is 74.1 to 97%.
The corresponding values for `O=C(Nc1nccs1)[C@H](CC1CCCCC1)N1CCN(S(=O)(=O)c2cccc(Cl)c2F)CC1=O` [Example 188, (S)-2-(4-(3-chloro-2-fluorophenylsulfonyl)-2-oxopiperazin-1-yl)-3-cyclohexyl-N-(thiazol-2-yl)propanamide] are at most 0.631 µM and at least 119%.
The corresponding values for `Cc1ccc(S(=O)(=O)N2CCN([C@@H](CC3CCCCC3)C(=O)Nc3nccs3)C(=O)C2)cc1F` [Example 189, (S)-3-cyclohexyl-2-(4-(3-fluoro-4-methylphenylsulfonyl)-2-oxopiperazin-1-yl)-N-(thiazol-2-yl)propanamide] are at most 0.631 µM and 108 to 119%.
Consider `O=C(Nc1nccs1)[C@H](CC1CCCCC1)N1CCN(S(=O)(=O)c2cc(F)c(Cl)cc2F)CC1=O` [Example 190, (S)-2-(4-(4-chloro-2,5-difluorophenylsulfonyl)-2-oxopiperazin-1-yl)-3-cyclohexyl-N-(thiazol-2-yl)propanamide], for which the EC50 was 0.794 to 1.26 µM and the Emax is 74.1 to 97%.
For `Cc1ccc(F)cc1S(=O)(=O)N1CCN([C@@H](CC2CCCCC2)C(=O)Nc2nccs2)C(=O)C1` [Example 191, (S)-3-cyclohexyl-2-(4-(5-fluoro-2-methylphenylsulfonyl)-2-oxopiperazin-1-yl)-N-(thiazol-2-yl)propanamide], the EC50 was at most 0.631 µM and the Emax was 108 to 119%.
The corresponding values for `Cc1cccc(S(=O)(=O)N2CCN([C@@H](CC3CCCCC3)C(=O)Nc3nccs3)C(=O)C2)c1` [Example 192, (S)-3-cyclohexyl-2-(2-oxo-4-(m-tolylsulfonyl)piperazin-1-yl)-N-(thiazol-2-yl)propanamide] are at most 0.631 µM and at least 119%.
The corresponding values for `Cn1nc(C(F)(F)F)cc1-c1ccc(S(=O)(=O)N2CCN([C@@H](CC3CCCCC3)C(=O)Nc3nccs3)C(=O)C2)s1` [Example 193, (S)-3-cyclohexyl-2-(4-(5-(1-methyl-3-(trifluoromethyl)-1H-pyrazol-5-yl)thiophen-2-ylsulfonyl)-2-oxopiperazin-1-yl)-N-(thiazol-2-yl)propanamide] are at most 0.631 µM and at most 74%.
Turning to `COc1ccc(OC)c(S(=O)(=O)N2CCN([C@@H](CC3CCCCC3)C(=O)Nc3nccs3)C(=O)C2)c1` [Example 194, (S)-3-cyclohexyl-2-(4-(2,5-dimethoxyphenylsulfonyl)-2-oxopiperazin-1-yl)N-(thiazol-2-yl)propanamide], the EC50 fell in the range of 0.794 to 1.26 µM and the Emax is 108 to 119%.
In the same order, the values of `Cc1cc(C)cc(S(=O)(=O)N2CCN([C@@H](CC3CCCCC3)C(=O)Nc3nccs3)C(=O)C2)c1` [Example 195, (S)-3-cyclohexyl-2-(4-(3,5-dimethylphenylsulfonyl)-2-oxopiperazin-1-yl)-N-(thiazol-2-yl)propanamide] are at most 0.631 µM and at least 119%.
In the same order, the values of `CC(=O)c1cccc(S(=O)(=O)N2CCN([C@@H](CC3CCCCC3)C(=O)Nc3nccs3)C(=O)C2)c1` [Example 196, (S)-2-(4-(3-acetylphenylsulfonyl)-2-oxopiperazin-1-yl)-3-cyclohexyl-N-(thiazol-2-yl)propanamide] are 1.58 to 2.51 µM and 97.1 to 107%.
In the same order, the values of `CC(=O)Nc1nc(C)c(S(=O)(=O)N2CCN([C@@H](CC3CCCCC3)C(=O)Nc3nccs3)C(=O)C2)s1` [Example 197, (S)-2-(4-(2-acetamido-4-methylthiazol-5-ylsulfonyl)-2-oxopiperazin-1-yl)-3-cyclohexyl-N-(thiazol-2-yl)propanamide] are at least 3.16 µM and 97.1 to 107%.
`Cn1cc(S(=O)(=O)N2CCN([C@@H](CC3CCCCC3)C(=O)Nc3nccs3)C(=O)C2)c(C(F)(F)F)n1` [Example 198, (S)-3-cyclohexyl-2-(4-(1-methyl-3-(trifluoromethyl)-1H-pyrazol-4-ylsulfonyl)-2-oxopiperazin-1-yl)-N-(thiazol-2-yl)propanamide]: the EC50 lay within 1.58 to 2.51 µM and the Emax was 108 to 119%.
Take `Cc1ccc([N+](=O)[O-])cc1S(=O)(=O)N1CCN([C@@H](CC2CCCCC2)C(=O)Nc2nccs2)C(=O)C1` [Example 199, (S)-3-cyclohexyl-2-(4-(2-methyl-5-nitrophenylsulfonyl)-2-oxopiperazin-1-yl)-N-(thiazol-2-yl)propanamide]: the EC50 is at most 0.631 µM and the Emax is 74.1 to 97%.
In the case of `Cc1ccc(S(=O)(=O)N2CCN([C@@H](CC3CCCCC3)C(=O)Nc3nccs3)C(=O)C2)cc1` [Example 202, (S)-3-cyclohexyl-2-(2-oxo-4-tosylpiperazin-1-yl)N-(thiazol-2-yl)propanamide], the EC50 fell in the range of 1.58 to 2.51 µM and the Emax was 108 to 119%.
The corresponding values for `O=C(Nc1nccs1)[C@H](CC1CCCCC1)N1CCN(S(=O)(=O)c2ccc(Br)s2)CC1=O` [Example 203, (S)-2-(4-(5-bromothiophen-2-ylsulfonyl)-2-oxopiperazin-1-yl)-3-cyclohexyl-N-(thiazol-2-yl)propanamide] are at most 0.631 µM and 108 to 119%.
With `O=C(Nc1nccs1)[C@H](CC1CCCCC1)N1CCN(S(=O)(=O)c2ccc(Br)cc2)CC1=O` [Example 204, (S)-2-(4-(4-bromophenylsulfonyl)-2-oxopiperazin-1-yl)-3-cyclohexyl-N-(thiazol-2-yl)propanamide], the EC50 was 1.58 to 2.51 µM and the Emax was 74.1 to 97%.
The corresponding values for `O=C(Nc1nccs1)[C@H](CC1CCCCC1)N1CCN(S(=O)(=O)c2ccccc2F)CC1=O` [Example 205, (S)-3-cyclohexyl-2-(4-(2-fluorophenylsulfonyl)-2-oxopiperazin-1-yl)-N-(thiazol-2-yl)propanamide] are at most 0.631 µM and at least 119%.
The corresponding values for `CC(=O)c1ccc(S(=O)(=O)N2CCN([C@@H](CC3CCCCC3)C(=O)Nc3nccs3)C(=O)C2)cc1` [Example 206] are at least 3.16 µM and 74.1 to 97%.
The corresponding values for `O=C(Nc1nccs1)[C@H](CC1CCCCC1)N1CCN(S(=O)(=O)c2ccc(Oc3ccccn3)cc2)CC1=O` [Example 207, (S)-3-cyclohexyl-2-(2-oxo-4-(4-(pyridin-2-yloxy)phenylsulfonyl)piperazin-1-yl)-N-(thiazol-2-yl)propanamide] are at most 0.631 µM and 74.1 to 97%.
As to `O=C(Nc1nccs1)[C@H](CC1CCCCC1)N1CCN(S(=O)(=O)c2ccc(Oc3ccccc3)nc2)CC1=O` [Example 209, (S)-3-cyclohexyl-2-(2-oxo-4-(6-phenoxypyridin-3-ylsulfonyl)piperazin-1-yl)-N-(thiazol-2-yl)propanamide], the EC50 was 1.58 to 2.51 µM and the Emax is at most 74%.
As to `O=C(Nc1nccs1)[C@H](CC1CCCCC1)N1CCN(S(=O)(=O)Cc2ccc(C(F)(F)F)cc2)CC1=O` [Example 210, (S)-3-cyclohexyl-2-(2-oxo-4-(4-(trifluoromethyl)benzylsulfonyl)piperazin-1-yl)-N-(thiazol-2-yl)propanamide], the EC50 was at least 3.16 µM and the Emax is at most 74%.
The corresponding values for `O=C(Nc1nccs1)[C@H](CC1CCCCC1)N1CCN(S(=O)(=O)Cc2ccc(Cl)c(Cl)c2)CC1=O` [Example 211, (S)-3-cyclohexyl-2-(4-(3,4-dichlorobenzylsulfonyl)-2-oxopiperazin-1-yl)-N-(thiazol-2-yl)propanamide] are 1.58 to 2.51 µM and at most 74%.
The corresponding values for `O=C(Nc1nccs1)[C@H](CC1CCCCC1)N1CCN(S(=O)(=O)Cc2cc(Cl)cc(Cl)c2)CC1=O` [Example 212, (S)-3-cyclohexyl-2-(4-(3,5-dichlorobenzylsulfonyl)-2-oxopiperazin-1-yl)-N-(thiazol-2-yl)propanamide] are 1.58 to 2.51 µM and 74.1 to 97%.
The corresponding values for `O=C(Nc1nccs1)[C@H](CC1CCCCC1)N1CCN(S(=O)(=O)Cc2cccc(C(F)(F)F)c2)CC1=O` [Example 213, (S)-3-cyclohexyl-2-(2-oxo-4-(3-(trifluoromethyl)benzylsulfonyl)piperazin-1-yl)-N-(thiazol-2-yl)propanamide] are 1.58 to 2.51 µM and 74.1 to 97%.
As for `CNC(=O)Nc1ccc(S(=O)(=O)N2CCN([C@@H](CC3CCCCC3)C(=O)Nc3nccs3)C(=O)C2)cc1Cl` [Example 214, (S)-2-(4-(3-chloro-4-(3-methylureido)phenylsulfonyl)-2-oxopiperazin-1-yl)-3-cyclohexyl-N-(thiazol-2-yl)propanamide], the EC50 was in the range of 1.58 to 2.51 µM and the Emax is 97.1 to 107%.
